Reference: patent publication US11612583B2, “Disease modifying methods for treating neurodegenerative diseases using nootropic agents” (priority 2018, dated 2023)

Key:
Format in all cases: cell-based, mouse
primary cortical neurons = test: Rotenone toxicity in primary cortical neurons; settings: 24 hours
[1] = system: primary cortical neurons treated with rotenone; test: Image-based analysis of mitochondrial content in dendrites (MAP2B/TOM20 immunostaining); settings: after rotenone 65 nM; Forskolin/NKH477 6.5 μM-8.5 μM or 250 μM dbt-cAMP; FIG. 4
Source text: The rotenone-treated neurons were also studied by image-based analyses of mitochondrial content in dendrites from primary cortical neurons immunostained for dendrites (MAP2B) and for mitochondria (TOM20).

[2] = system: primary cortical neurons treated with rotenone; test: Dendrite length analysis (MAP2B immunostaining); settings: after rotenone 65 nM; Forskolin/NKH477 6.5 μM-8.5 μM or 250 μM dbt-cAMP; FIG. 5
[3] = system: primary cortical neurons treated with rotenone; test: Extracellular acidification rates (ECARs), proxy for glycolysis, in rotenone-treated primary cortical neurons; settings: after rotenone 65 nM 24 hours, 6.5 μM-8.5 μM, FIG. 3
Experimental: Rotenone (1.26 mM stock, Sigma, Cat #R8875) was freshly prepared in water prior to each use. Stocks of rotenone were maintained in the dark at −20° C. for up to 6 months. […]
The extracellular acidification rates (ECARs), a proxy for glycolysis, were also assessed by using an XF24^e Extracellular Flux Analyzer in primary neurons.

[4] = system: primary cortical neurons treated with rotenone; test: Oxygen consumption rates (XF24e Extracellular Flux Analyzer) in rotenone-treated primary cortical neurons; settings: after rotenone 65 nM 24 hours, 24 hrs
Experimental: Rotenone (1.26 mM stock, Sigma, Cat #R8875) was freshly prepared in water prior to each use. Stocks of rotenone were maintained in the dark at −20° C. for up to 6 months. Rotenone was used at 65 μM for neuroblastoma cells and at 65 nM for primary cortical neurons for 4-6 hours to induce oxidative and autophagic stress.
Forskolin (Coleus forskohlii, >98% HPLC, Sigma Aldrich) was prepared in DMSO as 5 mg/ml stocks (stable for up to 6 months if kept in the dark and stored in −20° C. until ready to use). On the day of the experiment, the forskolin aliquot was thawed and cells were treated once with forskolin at a concentration of 1 to up to 10 μM of forskolin in complete media for treating primary cortical neurons or for intraperitoneal administration of PINK1 knockout mice or PINK1 knockout rats.
Rotenone-treated primary neurons were then exposed to 250 μM dibutyryl cyclic AMP (dbt-cAMP) or with the parental or water-soluble form (NKH477) of Forskolin (6.5 μM-8.5 μM, 24 hrs). The basal oxygen consumption rates (OCRs), a proxy for mitochondrial function, were analyzed by using an XF24^e Extracellular Flux Analyzer (Agilent Technologies). The maximal oxygen consumption rates (OCRs), a proxy for maximal buffering capacity of mitochondrial function, were also analyzed by using an XF24^e Extracellular Flux Analyzer in primary cortical neurons treated with 1 μM FCCP, an ionophore that acts as a mitochondrial uncoupler.

SMILES | LD50 concentration (primary cortical neurons) [nM] | mitochondrial content in dendrites (% of dendrites occupied by mitochondria) [1] | dendrite arbors (total dendrite length per neuron) [2] | glycolysis (baseline ECARs) [3] | spare respiratory capacity (Maximal OCRs-Baseline OCRs) ([4]; 6.5 μM-8.5 μM, 1 μM FCCP, FIG. 2) | baseline mitochondrial respiration (basal OCRs) ([4]; Forskolin or NKH477 6.5 μM-8.5 μM, FIG. 1)
C=C(C)[C@H]1Cc2c(ccc3c2O[C@@H]2COc4cc(OC)c(OC)cc4[C@@H]2C3=O)O1 [rotenone, Rotenone] | 65 | – | – | – | – | –
CCCC(=O)Nc1ncnc2c1ncn2[C@@H]1O[C@@H]2COP(=O)(O)O[C@H]2[C@H]1OC(=O)CCC [dbt-cAMP, dibutyryl cyclic AMP] | – | reversed the loss of mitochondria within dendrites | reversed the loss of dendrites | – | – | –
C=C[C@@]1(C)CC(=O)[C@]2(O)[C@@]3(C)[C@@H](O)CCC(C)(C)[C@@H]3[C@H](OC(=O)CCN(C)C)[C@H](OC(C)=O)[C@@]2(C)O1.Cl [NKH477] | – | completely blocked | completely blocked | completely restored normal glycolytic function | completely restored | partially or completely restored
